According to patent US20060165631A1, “Use of oligoglucosamines in cosmetic or dermatological preparations” (priority 2003, published 2006):

System: human keratinocytes
Experiment: Protection of cells against UV-B rays (cell DNA, LDH and PGE2 release)
Format: cell-based
Details: 0.03 % w/v, UVB 50 mJ/cm^2, control with UVB = 100%, without UVB = 0%
Procedure: The influence of UVB rays on keratinocytes was determined in vitro through the release of cytoplasmatic enzymes, such as LDH (lactate dehydrogenase) for example, which runs parallel to the cell damage and the formation of PGE2. To carry out the test, a keratinocyte culture was mixed with foetal calf serum and inoculated with the test substances after storage at 37° C. in an atmosphere containing 5% CO2. After incubation for 36 h at 37° C. and a CO2 level of 5% by vol., the nutrient medium was replaced by an electrolyte solution and the fibroblasts were damaged with a particular dose of UVB (50 mJ/cm^2; lamp: Duke GL40E). The quantity of keratinocytes was determined after trypsination via a cell counter while the LDH concentration was enzymatically determined.

With `CC(=O)Oc1ccccc1C(=O)O` [acetylsalicylic acid] the LDH released was 0% and the PGE2 released was 0%.
